Laboratory results from ChEMBL document CHEMBL3988442, “University of Dundee, Small-Polar-MMV Screening Library” (2021).

Key:
[1] = microbe, parasite or virus in culture; conditions: Mycobacterium tuberculosis, 96 h, read-out: pIC50 (converted)
[2] = microbe, parasite or virus in culture; conditions: Mycobacterium tuberculosis, 72 h, read-out: pIC50 (converted)

O=C(Oc1nsnc1N1CCCCC1)N1CCOCC1
IC50 [1]: 432 µM | IC50 [2]: 168 µM

O=C(c1ccc(Cl)o1)N1CCN(Cc2ccco2)CC1
IC50 [1]: 69.4 µM | IC50 [2]: 102 µM

N#CCCN1CCCN(c2ccc(C#N)cc2)CC1
IC50 [1]: 262 µM | IC50 [2]: 232 µM

CCC(CO)NC(=O)C1(c2ccc(F)cc2F)CCC1 (stereo not drawn)
IC50 [1]: > 501 µM | IC50 [2]: 313 µM

Cc1ccc(NCc2ncc[nH]2)c(F)c1
IC50 [1]: > 501 µM | IC50 [2]: 216 µM

O=S(=O)(NC1CCCC1)c1cncc(Cl)c1
IC50 [1]: > 501 µM | IC50 [2]: 226 µM

O=C(Nc1cccc(-n2cccn2)c1)N1CCSCC1
IC50 [1]: > 501 µM | IC50 [2]: > 501 µM

CN(CC(C)(CO)CO)c1ncc(Cl)cc1Cl
IC50 [1]: 301 µM | IC50 [2]: 122 µM

CCOCC(=O)NCC(O)c1cccc(C(F)(F)F)c1 (stereo not drawn)
IC50 [1]: > 501 µM | IC50 [2]: > 501 µM

CCC1c2ccsc2CCN1C(=O)c1ccc(CN)o1 (stereo not drawn)
IC50 [1]: 370 µM | IC50 [2]: 167 µM

O=C(Nc1cccnc1N1CCC(CO)CC1)C1CC1
IC50 [1]: 53.6 µM | IC50 [2]: > 501 µM

N#Cc1cccc(OCCn2cnc(C#N)n2)c1
IC50 [1]: 304 µM | IC50 [2]: > 501 µM

COCC(=O)NC1CCc2ccccc21 (stereo not drawn)
IC50 [1]: 124 µM | IC50 [2]: 114 µM

OC(Cn1nnc(-c2ccsc2)n1)CC(F)(F)F (stereo not drawn)
IC50 [1]: 39.2 µM | IC50 [2]: 56.5 µM

O=C(NCc1cccs1)c1cnsn1
IC50 [1]: 17.4 µM | IC50 [2]: 3.61 µM

O=C(NCc1ccc2c(c1)OCCCO2)c1cscn1
IC50 [1]: 111 µM | IC50 [2]: 107 µM

CNS(=O)(=O)c1ccc(C(=O)NCc2ccccc2)o1
IC50 [1]: > 501 µM | IC50 [2]: 151 µM

COc1ccnc(N2CCCNCC2)n1
IC50 [1]: > 501 µM | IC50 [2]: 229 µM

OC(CN1CCn2ccnc2C1)c1ccc(F)cc1 (stereo not drawn)
IC50 [1]: > 501 µM | IC50 [2]: 173 µM

CC1(C)CN(C(=O)c2cc(Br)c[nH]2)CCO1
IC50 [1]: 290 µM | IC50 [2]: 136 µM

CSc1cncc(NCCC(=O)N2CCCC2)n1
IC50 [1]: > 501 µM | IC50 [2]: 336 µM

CC(C)(C)c1cnc(CN2CCOCC2C(N)=O)o1 (stereo not drawn)
IC50 [1]: > 501 µM | IC50 [2]: 158 µM

COCCN1CCCN(C(=O)c2cc(Cl)c[nH]2)CC1
IC50 [1]: > 501 µM | IC50 [2]: 195 µM

CCOc1cc(Cl)ccc1CN
IC50 [1]: 121 µM | IC50 [2]: 159 µM

COc1ccc(CN(C)C(=O)C2CC2)cc1F
IC50 [1]: 255 µM | IC50 [2]: 211 µM

CSCC(C)(O)CNc1nnnn1-c1ccccc1 (stereo not drawn)
IC50 [1]: 290 µM | IC50 [2]: 306 µM

CCCC(C)CS(=O)(=O)NCc1ccncc1 (stereo not drawn)
IC50 [1]: 123 µM | IC50 [2]: 115 µM

Nc1nnc(SCc2coc(-c3ccccc3)n2)[nH]1
IC50 [1]: > 501 µM | IC50 [2]: > 501 µM

CN(Cc1ccc(Br)o1)C(=O)c1nccnc1N
IC50 [1]: 414 µM | IC50 [2]: 210 µM

CN(C)S(=O)(=O)NC1CCCOc2c(Cl)cccc21 (stereo not drawn)
IC50 [1]: > 501 µM | IC50 [2]: > 501 µM

O=C(CC1C=CCC1)N1CCN(c2ccccn2)CC1 (stereo not drawn)
IC50 [1]: 407 µM | IC50 [2]: 167 µM

CC(=O)N1CCN(Cc2cc(Br)c3c(c2)OCO3)CC1
IC50 [1]: 394 µM | IC50 [2]: > 501 µM

CC(C)N(C)S(=O)(=O)NCCCN(C)c1ccccc1
IC50 [1]: 216 µM | IC50 [2]: 193 µM

O=S1(=O)CCCN1CCNc1ncc(Cl)cc1Cl
IC50 [1]: > 501 µM | IC50 [2]: 111 µM

CNC(=O)c1sc(NC2CC2)nc1C
IC50 [1]: 88.1 µM | IC50 [2]: 72.7 µM

CC(=O)N1CCC[C@H]1C(=O)NCCc1csc(C)n1
IC50 [1]: > 501 µM | IC50 [2]: > 501 µM

CNC(=O)NC(=O)CCN1CCc2ccccc2C1
IC50 [1]: 201 µM | IC50 [2]: 196 µM

Cc1c(Br)cccc1S(=O)(=O)NCCN
IC50 [1]: > 501 µM | IC50 [2]: 212 µM

CN(Cc1c(F)cccc1Cl)C(=O)CNC(=O)C1CC1
IC50 [1]: 71 µM | IC50 [2]: 237 µM

CCC1(NC(=O)c2coc(S(=O)(=O)N(C)C)c2)CCC1
IC50 [1]: > 501 µM | IC50 [2]: > 501 µM

O=C(NCCc1cccnc1)c1cc(C2CC2)on1
IC50 [1]: > 501 µM | IC50 [2]: > 501 µM

CC(C)(C)OC(=O)c1ncccc1N
IC50 [1]: 265 µM | IC50 [2]: > 501 µM

O=C(Nc1ccc(F)c(Cl)c1)N1CCC(O)C1 (stereo not drawn)
IC50 [1]: 314 µM | IC50 [2]: 212 µM

CC(C)CC(C)Oc1cc(CNS(N)(=O)=O)ccn1 (stereo not drawn)
IC50 [1]: 372 µM | IC50 [2]: 116 µM

CC(C)CCC(=O)N1CCN(CC(O)C(F)(F)F)CC1 (stereo not drawn)
IC50 [1]: 30.2 µM | IC50 [2]: 42 µM

OC1(CNc2nc(-c3ccccc3)ns2)CCSC1 (stereo not drawn)
IC50 [1]: 256 µM | IC50 [2]: 279 µM

NCCc1cnn(-c2ccccc2)c1
IC50 [1]: 250 µM | IC50 [2]: 230 µM

Cn1nccc1C(=O)NC1CCc2ccccc2OC1 (stereo not drawn)
IC50 [1]: > 501 µM | IC50 [2]: > 501 µM

COCCNC(=O)Nc1ccc(OC(F)F)c(F)c1
IC50 [1]: 253 µM | IC50 [2]: 273 µM

O=C(NCCCOC(F)F)NCc1ccc(Br)o1
IC50 [1]: 125 µM | IC50 [2]: 135 µM

O=c1[nH]cnc2cccc(O)c12
IC50 [1]: > 501 µM | IC50 [2]: > 501 µM

COC1CCN(C(=O)Cc2ccc(N(C)C)cc2)C1 (stereo not drawn)
IC50 [1]: 122 µM | IC50 [2]: 183 µM

Cc1cc(C(=O)N2CCN(Cc3ccsc3)CC2)[nH]n1
IC50 [1]: 156 µM | IC50 [2]: 90.5 µM

COCCN(Cc1cccs1)C(=O)CC1CCNC1 (stereo not drawn)
IC50 [1]: 329 µM | IC50 [2]: 159 µM
